From patent US20250108358A1, “PHOTOCHEMICALLY DRIVEN REGENERATION OF CARBON DIOXIDE SORBENTS” (UT-Battelle, LLC, priority 2023, published 2025)

How the values were obtained:
[1] = pH measurements of mPAH 1 solutions under 355 nm lamp irradiation; assay type: physicochemical
Text: Light sources: The light source, referred as the 355 nm lamp thereafter, is a portion of the output of an Oriel 200 W mercury-xenon lamp, which was selected using a 2″ round Oriel broadband filter centered at 355 nm with a full width at half maximum of ˜150 nm and highest transmission of ˜90% (Filters 51664 and 59814). The photon fluxes at the sample position was ˜500 μmol·m^−2·s^−1, which measured using a handheld meter.
pH measurements and absorption spectra measurements: Typically for all experiments using the 355 nm lamp, 6 mL of solution mixtures were placed in a glass vial of diameter ˜2 cm and pH variations of the solutions upon light exposure were monitored continuously using a pH meter. Solutions were exposed to air and continuously stirred during pH measurements and sealed and kept in the dark without stirring for the mPAH 1 reverse reaction. Calculated amount of bicarbonate was replaced prior to second and third cycles. All absorption spectra during a given reaction event were acquired using a UV-vis spectrometer by taking a small amount (˜200 μL) of solution. Co-existence of different mPAH 1 conformers were verified using 1H NMR spectroscopy and theoretical calculations.

[2] = Total inorganic carbon (TIC) analysis, simulated system with KHCO3
Description: (§1) Total inorganic carbon analysis: To quantify the amount of total inorganic carbon converted to CO2, the quantities of bicarbonate in the solution before and after the irradiation were determined using a total inorganic carbon analyzer consisting of an acidification module and a coulometric detection. […] Air was used as carrier gas (100 mL/min) in all experiments. 1 mM KHCO3 solution was tested similarly as the reference sample. Calculations were based on sample volume and 1 M Na2CO3 was used as the standard solution.

[3] = Total inorganic carbon (TIC) analysis, CO2-loaded glycine system; conditions: for reduction in the inorganic carbon content: vs CO2-loaded glycine solution
Description: See F. M. Brethome et al., Nat. Energy 2018, 3, 553-559 and R. Custelcean et al., Ind. Eng. Chem. Res. 2019, 58, 23338-23346.
as §1

Solubility in water = assay type: physicochemical
[4] = Head space CO2 release measurement (infrared sensor, 470 nm LED); conditions: mPAH 2/morpholine
Text: This step is important to reproducibly measure the CO2 release as described below. […] After the reading of CO2 was steady, irradiation was applied from outside of the glass chamber using a 470 nm LED with moderate power (˜ 13 mW/cm^2). The CO2 released to the chamber was monitored using a head space method, as also used in previous studies. The concentration of CO2 gas in the chamber was monitored by the sensor and compared to that of a standard. Not only does this method directly measure the CO2 gas released, but also it is suitable for studying relatively small samples with good sensitivity. […] Addition of a strong acid leads to complete decomposition of the bicarbonate and CO2 release. […] It also reacts with CO2 via an acid-base reaction to form bicarbonate salt.

SMILES | rate of pH increase owing to CO2 release ([1]; 1 mM mPAH 1 + 1 mM KHCO3, second cycle of irradiation) | rate of pH increase owing to CO2 release ([1]; 1 mM mPAH 1 + 1 mM KHCO3, third cycle of irradiation) | pH increment ([1]; 1 mM mPAH 1 + 1 mM KHCO3, third cycle performed only 4 hours after the second cycle) | time for full reverse reaction to the initial trans isomer ([1]; mPAH 1 itself, in the dark) | total inorganic carbon in the solution converted to CO2 ([2]; 1 mM mPAH 1 + 1 mM KHCO3 (simulated system), upon irradiation) | total bicarbonate converted to CO2 ([2]; 2 mM mPAH 1 pre-irradiated 30 min, mixed with equal volume 2 mM KHCO3, reaction without irradiation) | total bicarbonate converted to CO2 ([2]; 2 mM mPAH 1 pre-irradiated, mixed with equal volume 2 mM KHCO3, continuous irradiation) | reduction in the inorganic carbon content ([3]; 1 mM mixture of CO2-loaded glycine and mPAH 1, upon irradiation) | reduction in the inorganic carbon content ([3]; 20 mM mixture of CO2-loaded glycine and mPAH 1, upon irradiation) | efficiency of conversion of total inorganic carbon to CO2 ([3]; amino acid (AA)-based DAC systems, with respect to initial concentrations) | solubility in water (Solubility in water) | time after start of irradiation at which head space [CO2] rose [4]
O=S(=O)([O-])CCC[n+]1c(/C=C/c2cc(S(=O)(=O)[O-])cc3cn[nH]c23)sc2ccccc21.[Na+] [mPAH 1] | 0.35 pH units/hour | 0.11 pH units/hour | 0.31 pH units/hour | 4 to 6 h | 55% | ~3% | ~50% | approximately 68% | ~78% | 68%-78% | – | –
COC(=O)c1ccc2sc(/C=C/c3cc(S(=O)(=O)[O-])cc4cn[nH]c34)[n+](CCCS(=O)(=O)O)c2c1 [mPAH 2] | – | – | – | – | – | – | – | – | – | – | about 30 mM | ~5 min
